One assay has as its system Bacillus subtilis. The experiment in a line: Antimicrobial activity against Bacillus subtilis at 5 ug/disk. In kind it is functional, organism-based.
A further assay relates to Staphylococcus aureus. The assay can be described thus: Antimicrobial activity against Staphylococcus aureus at 50 ug/disk. In kind it is functional, organism-based.

In ChEMBL document CHEMBL1158939, “Auranticins A and B: two new depsidones from a mangrove isolate of the fungus Preussia aurantiaca” (J Nat Prod, 1991) one finds Activity data, which are given here for two compounds.

Structures are written as SMILES. Activity calls are given as the source filed them. No cut-off for these calls is given here.

As to `C/C=C(\C)c1cc(OC)c(C)c2c1Oc1c(C=O)c(O)cc(/C(C)=C/C(=O)O)c1C(=O)O2`, the result with Bacillus subtilis and with Staphylococcus aureus was Active.

Regarding `C/C=C(\C)c1cc(OC)c(C)c2c1Oc1c(CO)c(O)cc(/C(C)=C/C(=O)O)c1C(=O)O2`, the result with Bacillus subtilis and in the assay on Staphylococcus aureus was Active.
